≈ marks a conversion by molar mass, not a printed value.
test system: Escherichia coli; experiment: Antimicrobial activity against Escherichia coli assessed as zone of inhibition at 50 ug/ml; format: functional; conditions: read-out: IZ

Row | SMILES | zone of inhibition at 50 µg/mL
1 | O=C(/C=C/c1ccc(Cl)cc1)n1nnnc1-c1ccccc1 | 8 to 15 mm
2 | COC1=CC(=O)C[C@@H](C)[C@]12Oc1c(Cl)c(OC)cc(OC)c1C2=O [GRISEOFULVIN] | 21 to 24 mm
3 | O=C(/C=C/c1ccccc1)n1nnnc1-c1ccccc1 | 8 to 15 mm
4 | c1ccc(-n2nnnc2-c2cccnc2)cc1 | 10 to 22 mm
5 | Cc1ccc(-c2nnnn2-c2ccccn2)cc1 | 10 to 24 mm
6 | Clc1cccc(-n2nnnc2-c2cccnc2)c1Cl | 10 to 22 mm
7 | CN(C)c1ccc(/C=C/C(=O)n2nnnc2-c2ccccc2)cc1 | 8 to 15 mm

test system: Staphylococcus aureus; experiment: Antimicrobial activity against Staphylococcus aureus assessed as zone of inhibition at 50 ug/ml; format: functional; conditions: read-out: IZ

Row | SMILES | zone of inhibition at 50 µg/mL
8 | O=C(/C=C/c1ccc(Cl)cc1)n1nnnc1-c1ccccc1 | 8 to 15 mm
9 | COC1=CC(=O)C[C@@H](C)[C@]12Oc1c(Cl)c(OC)cc(OC)c1C2=O [GRISEOFULVIN] | 21 to 24 mm
10 | O=C(/C=C/c1ccccc1)n1nnnc1-c1ccccc1 | 8 to 15 mm
11 | c1ccc(-n2nnnc2-c2cccnc2)cc1 | 10 to 22 mm
12 | Cc1ccc(-c2nnnn2-c2ccccn2)cc1 | 10 to 24 mm
13 | Clc1cccc(-n2nnnc2-c2cccnc2)c1Cl | 10 to 22 mm
14 | CN(C)c1ccc(/C=C/C(=O)n2nnnc2-c2ccccc2)cc1 | 8 to 15 mm

test system: Aspergillus niger; experiment: Antifungal activity against Aspergillus niger assessed as zone of inhibition at 50 ug/ml; format: functional; conditions: read-out: IZ

Row | SMILES | zone of inhibition at 50 µg/mL
15 | O=C(/C=C/c1ccc(Cl)cc1)n1nnnc1-c1ccccc1 | 8 to 15 mm
16 | COC1=CC(=O)C[C@@H](C)[C@]12Oc1c(Cl)c(OC)cc(OC)c1C2=O [GRISEOFULVIN] | 21 to 24 mm
17 | O=C(/C=C/c1ccccc1)n1nnnc1-c1ccccc1 | 8 to 15 mm
18 | CN(C)c1ccc(/C=C/C(=O)n2nnnc2-c2ccccc2)cc1 | 8 to 15 mm

test system: Candida albicans; experiment: Antifungal activity against Candida albicans assessed as zone of inhibition at 50 ug/ml; format: functional; conditions: read-out: IZ

Row | SMILES | zone of inhibition at 50 µg/mL
19 | O=C(/C=C/c1ccc(Cl)cc1)n1nnnc1-c1ccccc1 | 8 to 15 mm
20 | COC1=CC(=O)C[C@@H](C)[C@]12Oc1c(Cl)c(OC)cc(OC)c1C2=O [GRISEOFULVIN] | 21 to 24 mm
21 | O=C(/C=C/c1ccccc1)n1nnnc1-c1ccccc1 | 8 to 15 mm
22 | c1ccc(-n2nnnc2-c2cccnc2)cc1 | 10 to 22 mm
23 | Cc1ccc(-c2nnnn2-c2ccccn2)cc1 | 10 to 24 mm
24 | Clc1cccc(-n2nnnc2-c2cccnc2)c1Cl | 10 to 22 mm
25 | CN(C)c1ccc(/C=C/C(=O)n2nnnc2-c2ccccc2)cc1 | 8 to 15 mm

test system: Pseudomonas aeruginosa; experiment: Antimicrobial activity against Pseudomonas aeruginosa assessed as zone of inhibition at 50 ug/ml; format: functional; conditions: read-out: IZ

Row | SMILES | zone of inhibition at 50 µg/mL
26 | c1ccc(-n2nnnc2-c2cccnc2)cc1 | 10 to 22 mm
27 | Cc1ccc(-c2nnnn2-c2ccccn2)cc1 | 10 to 24 mm
28 | Clc1cccc(-n2nnnc2-c2cccnc2)c1Cl | 10 to 22 mm

test system: Bacillus subtilis; experiment: Antimicrobial activity against Bacillus subtilis assessed as zone of inhibition at 50 ug/ml; format: functional; conditions: read-out: IZ

Row | SMILES | zone of inhibition at 50 µg/mL
29 | c1ccc(-n2nnnc2-c2cccnc2)cc1 | 10 to 22 mm
30 | Cc1ccc(-c2nnnn2-c2ccccn2)cc1 | 10 to 24 mm
31 | Clc1cccc(-n2nnnc2-c2cccnc2)c1Cl | 10 to 22 mm

test system: Aspergillus fumigatus; experiment: Antifungal activity against Aspergillus fumigatus assessed as zone of inhibition at 50 ug/ml; format: functional; conditions: read-out: IZ

Row | SMILES | zone of inhibition at 50 µg/mL
32 | c1ccc(-n2nnnc2-c2cccnc2)cc1 | 10 to 22 mm
33 | Cc1ccc(-c2nnnn2-c2ccccn2)cc1 | 10 to 24 mm
34 | Clc1cccc(-n2nnnc2-c2cccnc2)c1Cl | 10 to 22 mm

test system: SiHa; experiment: Growth inhibition of human SiHa cells; format: functional; conditions: not given

Row | SMILES | GI50
35 | CC/C(=C(\c1ccccc1)c1ccc(OCCN(C)C)cc1)c1ccccc1 [TAMOXIFEN] | 120 to 240 nM
36 | CCn1cc(C(=O)O)c(=O)c2cnc(N3CCN(C(=O)CCSc4nnnn4-c4ccc(Br)cc4)CC3)nc21 | 70 to 220 nM

test system: MDA-MB-231; experiment: Growth inhibition of human MDA-MB-231 cells; format: functional; conditions: not given

Row | GI50 | SMILES
37 | 120 to 240 nM | CC/C(=C(\c1ccccc1)c1ccc(OCCN(C)C)cc1)c1ccccc1 [TAMOXIFEN]
38 | 70 to 220 nM | CCn1cc(C(=O)O)c(=O)c2cnc(N3CCN(C(=O)CCSc4nnnn4-c4ccc(Br)cc4)CC3)nc21

test system: PANC-1; experiment: Growth inhibition of human PANC1 cells; format: functional; conditions: not given

Row | GI50 | SMILES
39 | 120 to 240 nM | CC/C(=C(\c1ccccc1)c1ccc(OCCN(C)C)cc1)c1ccccc1 [TAMOXIFEN]
40 | 70 to 220 nM | CCn1cc(C(=O)O)c(=O)c2cnc(N3CCN(C(=O)CCSc4nnnn4-c4ccc(Br)cc4)CC3)nc21

test system: Bacillus subtilis; experiment: Antimicrobial activity against Bacillus subtilis NCIM 2250 after 48 hrs by NCCLS protocol based method; format: functional; conditions: NCIM 2250, 48 h

Row | SMILES | MIC
41 | CCOC(=O)C(C#N)C(c1cc2ccc(CC)cc2n2nnnc12)P(=O)(OCC)OCC (stereo not given) | 10 to 20 µg/mL (≈ 21.8 to 43.5 µM)
42 | CCOC(=O)C(C#N)C(c1cc2cc(C)ccc2n2nnnc12)P(=O)(OCC)OCC (stereo not given) | 10 to 20 µg/mL (≈ 22.5 to 44.9 µM)
43 | CCOC(=O)C(C#N)C(c1cc2c(OC)cccc2n2nnnc12)P(=O)(OCC)OCC (stereo not given) | 10 to 20 µg/mL (≈ 21.7 to 43.3 µM)
44 | CCOC(=O)C(C#N)C(c1cc2ccc(C)cc2n2nnnc12)P(=O)(OCC)OCC (stereo not given) | 10 to 20 µg/mL (≈ 22.5 to 44.9 µM)
45 | CCOC(=O)C(C#N)C(c1cc2c(C)cccc2n2nnnc12)P(=O)(OCC)OCC (stereo not given) | 10 to 20 µg/mL (≈ 22.5 to 44.9 µM)
46 | CCOC(=O)C(C#N)C(c1cc2ccccc2n2nnnc12)P(=O)(OCC)OCC (stereo not given) | 10 to 20 µg/mL (≈ 23.2 to 46.4 µM)
47 | CCOC(=O)C(C#N)C(c1cc2c(OCC)cccc2n2nnnc12)P(=O)(OCC)OCC (stereo not given) | 10 to 20 µg/mL (≈ 21 to 42.1 µM)
48 | CCOC(=O)C(C#N)C(c1cc2cc(OC)ccc2n2nnnc12)P(=O)(OCC)OCC (stereo not given) | 10 to 20 µg/mL (≈ 21.7 to 43.3 µM)
49 | CCOC(=O)C(C#N)C(c1cc2ccc(OC)cc2n2nnnc12)P(=O)(OCC)OCC (stereo not given) | 10 µg/mL (≈ 21.7 µM)
50 | COC1=CC(=O)C[C@@H](C)[C@]12Oc1c(Cl)c(OC)cc(OC)c1C2=O [GRISEOFULVIN] | 10 µg/mL (≈ 28.3 µM)

test system: Escherichia coli; experiment: Antimicrobial activity against Escherichia coli ATCC 25922 after 48 hrs by NCCLS protocol based method; format: functional; conditions: ATCC 25922, 48 h

Row | SMILES | MIC
51 | CCOC(=O)C(C#N)C(c1cc2ccc(CC)cc2n2nnnc12)P(=O)(OCC)OCC (stereo not given) | 10 to 20 µg/mL (≈ 21.8 to 43.5 µM)
52 | CCOC(=O)C(C#N)C(c1cc2cc(C)ccc2n2nnnc12)P(=O)(OCC)OCC (stereo not given) | 10 to 20 µg/mL (≈ 22.5 to 44.9 µM)
53 | CCOC(=O)C(C#N)C(c1cc2c(OC)cccc2n2nnnc12)P(=O)(OCC)OCC (stereo not given) | 10 to 20 µg/mL (≈ 21.7 to 43.3 µM)
54 | CCOC(=O)C(C#N)C(c1cc2ccc(C)cc2n2nnnc12)P(=O)(OCC)OCC (stereo not given) | 10 to 20 µg/mL (≈ 22.5 to 44.9 µM)
55 | CCOC(=O)C(C#N)C(c1cc2c(C)cccc2n2nnnc12)P(=O)(OCC)OCC (stereo not given) | 10 to 20 µg/mL (≈ 22.5 to 44.9 µM)
56 | CCOC(=O)C(C#N)C(c1cc2ccccc2n2nnnc12)P(=O)(OCC)OCC (stereo not given) | 10 to 20 µg/mL (≈ 23.2 to 46.4 µM)
57 | CCOC(=O)C(C#N)C(c1cc2c(OCC)cccc2n2nnnc12)P(=O)(OCC)OCC (stereo not given) | 10 to 20 µg/mL (≈ 21 to 42.1 µM)
58 | CCOC(=O)C(C#N)C(c1cc2cc(OC)ccc2n2nnnc12)P(=O)(OCC)OCC (stereo not given) | 10 to 20 µg/mL (≈ 21.7 to 43.3 µM)
59 | CCOC(=O)C(C#N)C(c1cc2ccc(OC)cc2n2nnnc12)P(=O)(OCC)OCC (stereo not given) | 10 µg/mL (≈ 21.7 µM)
60 | COC1=CC(=O)C[C@@H](C)[C@]12Oc1c(Cl)c(OC)cc(OC)c1C2=O [GRISEOFULVIN] | 10 µg/mL (≈ 28.3 µM)

test system: Aspergillus niger; experiment: Antifungal activity against Aspergillus niger NCIM 545 after 48 hrs by NCCLS protocol based method; format: functional; conditions: NCIM 545, 48 h

Row | SMILES | MIC
61 | CCOC(=O)C(C#N)C(c1cc2ccc(CC)cc2n2nnnc12)P(=O)(OCC)OCC (stereo not given) | 10 to 20 µg/mL (≈ 21.8 to 43.5 µM)
62 | CCOC(=O)C(C#N)C(c1cc2cc(C)ccc2n2nnnc12)P(=O)(OCC)OCC (stereo not given) | 10 to 20 µg/mL (≈ 22.5 to 44.9 µM)
63 | CCOC(=O)C(C#N)C(c1cc2c(OC)cccc2n2nnnc12)P(=O)(OCC)OCC (stereo not given) | 10 to 20 µg/mL (≈ 21.7 to 43.3 µM)
64 | CCOC(=O)C(C#N)C(c1cc2ccc(C)cc2n2nnnc12)P(=O)(OCC)OCC (stereo not given) | 10 to 20 µg/mL (≈ 22.5 to 44.9 µM)
65 | CCOC(=O)C(C#N)C(c1cc2c(C)cccc2n2nnnc12)P(=O)(OCC)OCC (stereo not given) | 10 to 20 µg/mL (≈ 22.5 to 44.9 µM)
66 | CCOC(=O)C(C#N)C(c1cc2ccccc2n2nnnc12)P(=O)(OCC)OCC (stereo not given) | 10 to 20 µg/mL (≈ 23.2 to 46.4 µM)
67 | CCOC(=O)C(C#N)C(c1cc2c(OCC)cccc2n2nnnc12)P(=O)(OCC)OCC (stereo not given) | 10 to 20 µg/mL (≈ 21 to 42.1 µM)
68 | CCOC(=O)C(C#N)C(c1cc2cc(OC)ccc2n2nnnc12)P(=O)(OCC)OCC (stereo not given) | 10 to 20 µg/mL (≈ 21.7 to 43.3 µM)
69 | CCOC(=O)C(C#N)C(c1cc2ccc(OC)cc2n2nnnc12)P(=O)(OCC)OCC (stereo not given) | 10 µg/mL (≈ 21.7 µM)
70 | COC1=CC(=O)C[C@@H](C)[C@]12Oc1c(Cl)c(OC)cc(OC)c1C2=O [GRISEOFULVIN] | 10 µg/mL (≈ 28.3 µM)

test system: Candida albicans; experiment: Antifungal activity against Candida albicans MTCC 277 after 48 hrs by NCCLS protocol based method; format: functional; conditions: MTCC 277, 48 h

Row | SMILES | MIC
71 | CCOC(=O)C(C#N)C(c1cc2ccc(CC)cc2n2nnnc12)P(=O)(OCC)OCC (stereo not given) | 10 to 20 µg/mL (≈ 21.8 to 43.5 µM)
72 | CCOC(=O)C(C#N)C(c1cc2cc(C)ccc2n2nnnc12)P(=O)(OCC)OCC (stereo not given) | 10 to 20 µg/mL (≈ 22.5 to 44.9 µM)
73 | CCOC(=O)C(C#N)C(c1cc2c(OC)cccc2n2nnnc12)P(=O)(OCC)OCC (stereo not given) | 10 to 20 µg/mL (≈ 21.7 to 43.3 µM)
74 | CCOC(=O)C(C#N)C(c1cc2ccc(C)cc2n2nnnc12)P(=O)(OCC)OCC (stereo not given) | 10 to 20 µg/mL (≈ 22.5 to 44.9 µM)
75 | CCOC(=O)C(C#N)C(c1cc2c(C)cccc2n2nnnc12)P(=O)(OCC)OCC (stereo not given) | 10 to 20 µg/mL (≈ 22.5 to 44.9 µM)
76 | CCOC(=O)C(C#N)C(c1cc2ccccc2n2nnnc12)P(=O)(OCC)OCC (stereo not given) | 10 to 20 µg/mL (≈ 23.2 to 46.4 µM)
77 | CCOC(=O)C(C#N)C(c1cc2c(OCC)cccc2n2nnnc12)P(=O)(OCC)OCC (stereo not given) | 10 to 20 µg/mL (≈ 21 to 42.1 µM)
78 | CCOC(=O)C(C#N)C(c1cc2cc(OC)ccc2n2nnnc12)P(=O)(OCC)OCC (stereo not given) | 10 to 20 µg/mL (≈ 21.7 to 43.3 µM)
79 | CCOC(=O)C(C#N)C(c1cc2ccc(OC)cc2n2nnnc12)P(=O)(OCC)OCC (stereo not given) | 10 µg/mL (≈ 21.7 µM)
80 | COC1=CC(=O)C[C@@H](C)[C@]12Oc1c(Cl)c(OC)cc(OC)c1C2=O [GRISEOFULVIN] | 10 µg/mL (≈ 28.3 µM)

From ChEMBL document CHEMBL4342421, “Current scenario of tetrazole hybrids for antibacterial activity” (Eur J Med Chem, 2019)
